Test results from patent US4599203A, “Multisulfonated naphthalene ureas useful as complement inhibitors” (American Cyanamid Company, priority 1984, dated 1986).
Where a name gives a salt, the structure may show the parent alone.

Experiments:
[1] = target: activated human C1 (Homo sapiens, UniProt P09871); experiment: Test Code 026 (C1 inhibitor): protection of fluid phase human C2 from activated human C1 in the presence of C4; assay type: biochemical; conditions: serial twofold dilution assay; higher well number indicates higher activity
[2] = tested on: complement; experiment: Guinea Pig Intraperitoneal Test (GPIP): serum complement activity after i.p. dosing; assay type: in vivo; conditions: 200 mg/kg i.p.; for In vivo Activity Guinea Pigs Intraperitoneal % Lowering, 30 minutes: blood 30 minutes after injection; for In vivo Activity Guinea Pigs Intraperitoneal % Lowering, 60 minutes: blood 60 minutes after injection; for In vivo Activity Guinea Pigs Intraperitoneal % Lowering, 120 minutes: blood 120 minutes after injection
Protocol: (§1) An active inhibitor protects C2 from C1 and C4; (ii) Test Code 036 (C-Shunt inhibitor)--In this test human erythrocytes rendered fragile are lysed in autologous serum via the shunt pathway activated by cobra venom factor in the presence of appropriate dilutions of the test compound. Inhibition of the shunt pathway results in failure of lysis; (iii) Cap 50 Test--Here, appropriate amounts of the test compound are added to a pool of guinea pig serum in vitro, after which the complement level is determined in undiluted serum by the serum capillary tube assay of U.S. Pat. No. 3,876,376. The concentration of compound inhibiting 50% is reported; and (iv) Guinea Pig Intraperitoneal Test (GPIP)--Guinea pigs weighing about 300 g are dosed intraperitoneally (i.p.) with 200 mg/kg of the test compound dissolved in saline and adjusted to pH 7-8. Approximately 0.4 ml blood samples, taken by orbital sinus puncture 30 minutes and one hour after injections, are collected directly into centrifuge tubes; 5 ml blood samples, taken by decapitation 2 hours after inJection, are collected directly into diSPo® beakers. The samples were allowed to clot, centrifuged, and the resultant sera were assayed for complement activity using the capillary complement assay. Percent inhibition is calculated by comparison with simultaneous controls. The results of the GPIP appear in Table I together with results of Test Code 026, 036 and Cap 50.

[3] = tested on: hereditary angioneurotic edema; conditions: literature report; cited from earlier work
[4] = tested on: shunt pathway; experiment: Test Code 036 (C-Shunt inhibitor): lysis of fragile human erythrocytes in autologous serum via shunt pathway activated by cobra venom factor; assay type: cell-based; conditions: serial twofold dilution assay; higher well number indicates higher activity
Protocol: as §1, with “The results of the GPIP appear in Table I together with results of Test Code 026, 036 and Cap 50.” left out

[5] = tested on: complement system; conditions: literature report; cited from earlier work

O=C(Nc1cc(S(=O)(=O)O)cc2cc(S(=O)(=O)O)cc(OS(=O)(=O)c3ccccc3)c12)Nc1cc(S(=O)(=O)O)cc2cc(S(=O)(=O)O)cc(OS(=O)(=O)c3ccccc3)c12 [4,4'-Ureylenebis(5-hydroxy-2,7-naphthalenedisulfonic acid), tetrasodium salt dibenzenesulfonate]
In vitro Activity C1 026 Wells [1]: +3 Wells

O=C(Nc1cc2c(O)cc(S(=O)(=O)[O-])cc2cc1S(=O)(=O)[O-])Nc1cc2c(O)cc(S(=O)(=O)[O-])cc2cc1S(=O)(=O)[O-].[Na+].[Na+].[Na+].[Na+] [3,3'-Ureylenebis(5-hydroxy-2,7-naphthalenedisulfonic acid), tetrasodium salt]
In vivo Activity Guinea Pigs Intraperitoneal % Lowering, 30 minutes [2]: 4% | In vivo Activity Guinea Pigs Intraperitoneal % Lowering, 60 minutes [2]: 1% | In vivo Activity Guinea Pigs Intraperitoneal % Lowering, 120 minutes [2]: 28% | In vitro Activity C1 026 Wells [1]: +4 Wells

O=C(Nc1ccc2c(O)cc(S(=O)(=O)O)cc2c1)Nc1ccc2c(O)cc(S(=O)(=O)O)cc2c1 [6,6'-ureylenebis(1-hydroxy-3-naphthalenesulfonic acid)]
In vitro Activity C1 026 Wells [1]: +1 Wells

NCCCCCC(=O)O [epsilon-aminocaproic acid]
treatment of hereditary angioneurotic edema [3]: used with success

O=C(Nc1ccc(S(=O)(=O)[O-])c2ccc(S(=O)(=O)[O-])cc12)Nc1ccc(S(=O)(=O)[O-])c2ccc(S(=O)(=O)[O-])cc12.[Na+].[Na+].[Na+].[Na+] [4,4'-Ureylenedi-1,6-naphthalenedisulfonic acid, tetrasodium salt]
In vitro Activity C1 026 Wells [1]: +3 Wells

O=C(Nc1cc2ccc(S(=O)(=O)[O-])cc2cc1S(=O)(=O)[O-])Nc1cc2ccc(S(=O)(=O)[O-])cc2cc1S(=O)(=O)[O-].[Na+].[Na+].[Na+].[Na+] [3,3'-Ureylenedi-2,7-naphthalenedisulfonic acid, tetrasodium salt]
In vitro Activity C1 026 Wells [1]: +3 Wells

O=C(Nc1cc(S(=O)(=O)[O-])cc2ccc(S(=O)(=O)[O-])cc12)Nc1cc(S(=O)(=O)[O-])cc2ccc(S(=O)(=O)[O-])cc12.[Na+].[Na+].[Na+].[Na+] [4,4'-Ureylenedi-2,6-naphthalenedisulfonic acid, tetrasodium salt]
In vitro Activity C1 026 Wells [1]: +2 Wells

O=C(Nc1ccc2cc(S(=O)(=O)O)cc(O)c2c1)Nc1ccc2cc(S(=O)(=O)O)cc(O)c2c1 [7,7'-ureylenebis(1-hydroxy-3-naphthalenesulfonic acid)]
In vitro Activity C1 026 Wells [1]: +2 Wells

O=C(Nc1cc(S(=O)(=O)[O-])c2cc(S(=O)(=O)[O-])cc(S(=O)(=O)[O-])c2c1)Nc1cc(S(=O)(=O)[O-])c2cc(S(=O)(=O)[O-])cc(S(=O)(=O)[O-])c2c1.[Na+].[Na+].[Na+].[Na+].[Na+].[Na+] [7,7'-Ureylenedi-1,3,5-naphthalenetrisulfonic acid, hexasodium salt]
In vitro Activity C-Shunt Inhibition 036 Wells [4]: +1 Wells | In vitro Activity C1 026 Wells [1]: +6 Wells

O=C(Nc1ccc(S(=O)(=O)[O-])c2ccccc12)Nc1ccc(S(=O)(=O)[O-])c2ccccc12.[Na+].[Na+] [4,4'-Ureylenedi-1-naphthalenesulfonic acid, disodium salt]
In vitro Activity C1 026 Wells [1]: +2 Wells

Nc1ccc2cc(S(=O)(=O)[O-])cc(O)c2c1N=Nc1ccc(NC(=O)Nc2ccc(N=Nc3c(N)ccc4cc(S(=O)(=O)[O-])cc(O)c34)c(S(=O)(=O)[O-])c2)cc1S(=O)(=O)[O-].[Na+].[Na+].[Na+].[Na+] [chlorazol fast pink, 3,3'-ureylenebis[6-(2-amino-8-hydroxy-6-sulfo-1-naphthylazo)benzenesulfonic acid], tetrasodium salt]
anti-complementary effect [5]: anti-complementary effect

O=C(Nc1cc(S(=O)(=O)[O-])cc2cc(S(=O)(=O)[O-])ccc12)Nc1cc(S(=O)(=O)[O-])cc2cc(S(=O)(=O)[O-])ccc12.[Na+].[Na+].[Na+].[Na+] [4,4'-Ureylenedi-2,7-naphthalenedisulfonic acid, tetrasodium salt]
In vitro Activity C1 026 Wells [1]: +3 Wells

O=S(=O)([O-])c1cc(NC(=S)Nc2cc(S(=O)(=O)[O-])cc3cc(S(=O)(=O)[O-])cc(S(=O)(=O)[O-])c23)c2c(S(=O)(=O)[O-])cc(S(=O)(=O)[O-])cc2c1.[Na+].[Na+].[Na+].[Na+].[Na+].[Na+] [8,8'-(2-Thioureylene)di-1,3,6-naphthalenetrisulfonic acid, hexasodium salt]
In vivo Activity Guinea Pigs Intraperitoneal % Lowering, 30 minutes [2]: 41% | In vivo Activity Guinea Pigs Intraperitoneal % Lowering, 60 minutes [2]: 20% | In vivo Activity Guinea Pigs Intraperitoneal % Lowering, 120 minutes [2]: 42% | In vitro Activity C1 026 Wells [1]: +5 Wells

heparin
anti-complementary effect [5]: anti-complementary effect

O=C(Nc1ccc(S(=O)(=O)[O-])c2cc(S(=O)(=O)[O-])cc(S(=O)(=O)[O-])c12)Nc1ccc(S(=O)(=O)[O-])c2cc(S(=O)(=O)[O-])cc(S(=O)(=O)[O-])c12.[Na+].[Na+].[Na+].[Na+].[Na+].[Na+] [8,8'-Ureylenedi-1,3,5-naphthalenetrisulfonic acid, hexasodium salt]
In vivo Activity Guinea Pigs Intraperitoneal % Lowering, 30 minutes [2]: 92% | In vivo Activity Guinea Pigs Intraperitoneal % Lowering, 60 minutes [2]: 92% | In vivo Activity Guinea Pigs Intraperitoneal % Lowering, 120 minutes [2]: 94%

O=C(Nc1ccc2c(S(=O)(=O)[O-])cc(S(=O)(=O)[O-])cc2c1)Nc1ccc2c(S(=O)(=O)[O-])cc(S(=O)(=O)[O-])cc2c1.[Na+].[Na+].[Na+].[Na+] [6,6'-Ureylenedi-1,3-naphthalenedisulfonic acid, tetrasodium salt]
In vitro Activity C1 026 Wells [1]: +3 Wells

NC[C@H]1CC[C@H](C(=O)O)CC1 [tranexamic acid]
treatment of hereditary angioneurotic edema [3]: used with success

O=C(Nc1cc(S(=O)(=O)[O-])cc2cccc(S(=O)(=O)[O-])c12)Nc1cc(S(=O)(=O)[O-])cc2cccc(S(=O)(=O)[O-])c12.[Na+].[Na+].[Na+].[Na+] [8,8'-Ureylenedi-1,6-naphthalenedisulfonic acid, tetrasodium salt]
In vitro Activity C1 026 Wells [1]: +3 Wells

O=C(Nc1cc(S(=O)(=O)[O-])c2cc([N+](=O)[O-])cc(S(=O)(=O)[O-])c2c1)Nc1cc(S(=O)(=O)[O-])c2cc([N+](=O)[O-])cc(S(=O)(=O)[O-])c2c1.[Na+].[Na+].[Na+].[Na+] [3,3'-Ureylenebis(7-nitro-1,5-naphthalenedisulfonic acid), tetrasodium salt]
In vitro Activity C1 026 Wells [1]: +3 Wells

O=C(Nc1cc(S(=O)(=O)[O-])cc2cc(S(=O)(=O)[O-])cc(S(=O)(=O)[O-])c12)Nc1cc(S(=O)(=O)[O-])cc2cc(S(=O)(=O)[O-])cc(S(=O)(=O)[O-])c12.[Na+].[Na+].[Na+].[Na+].[Na+].[Na+] [8,8'-Ureylenedi-1,3,6-naphthalenetrisulfonic acid, hexasodium salt]
In vivo Activity Guinea Pigs Intraperitoneal % Lowering, 30 minutes [2]: 25% | In vivo Activity Guinea Pigs Intraperitoneal % Lowering, 60 minutes [2]: 61% | In vivo Activity Guinea Pigs Intraperitoneal % Lowering, 120 minutes [2]: 65% | In vitro Activity C1 026 Wells [1]: +5 Wells
